# In publication PMC6325233, “A Novel Actin Binding Drug with In Vivo Efficacy” (Antimicrobial Agents and Chemotherapy, 2018):
# Key:
# [1] = tested on: Candida albicans 28102; assay: MIC susceptibility testing; type: cell-based; parameters: key to MIC, 50% inhibition: -: indicates absence of isolates with 50% inhibition endpoint; conditions: CLSI M27-A3
# Protocol: (§1) Occidiofungin was purified from a liquid culture of Burkholderia contaminans MS14 as previously described ([21]). MIC susceptibility testing was performed according to the CLSI M27-A3 and M38-A2 standards for the susceptibility testing of yeasts and filamentous fungi, respectively. S. cerevisiae deletion mutants were obtained from the commercially available BY4741 deletion library (Thermo Scientific).
# [2] = tested on: Candida albicans 23512; assay: MIC susceptibility testing (fluconazole-resistant strain); type: cell-based; parameters: key to MIC, 50% inhibition: -: indicates absence of isolates with 50% inhibition endpoint; conditions: CLSI M27-A3
# Protocol: as §1
# [3] = tested on: Candida glabrata 27243; assay: as above; type: cell-based; parameters: key to MIC, 50% inhibition: -: indicates absence of isolates with 50% inhibition endpoint; conditions: CLSI M27-A3
# Protocol: as §1
# [4] = tested on: Candida albicans strain ATCC 66027; assay: Hyphal induction (morphology switching) assay; type: cell-based; conditions: for % hyphae / % yeast: 1 µg/ml
# Protocol: The hyphal induction assay was performed as previously reported with minor modifications ([58]). Candida albicans strain ATCC 66027 was grown in yeast extract-peptone-dextrose (YPD) medium at 30°C for 48 h to reach saturation with an OD600 of 17 to 19. Cells were diluted into fresh Spider medium (1% nutrient broth, 1% mannitol, 0.2% K2HPO4) to obtain an OD600 of 0.05 (∼0.5 × 10^6 to 1 × 10^6 cells/ml) and incubated at 37°C with shaking to induce hyphal formation. Immediately prior to the 37°C incubation, occidiofungin (1 µg/ml; 0.5× MIC) or an equal volume of DMSO was added to the cultures. Aliquots were removed at 0-, 1-, 2-, 4-, and 6-h time points and fixed in 3.7% formaldehyde for later analysis of cell morphology by light microscopy. More than 200 cells were examined for each time point, and cells were scored as having either a yeast or filamentous form, with cells showing any outgrowth considered filamentous. DNA segregation assays were performed using a mid-log culture of S. cerevisiae (BY4743, diploid) and C. albicans (ATCC 66027). The cultures were diluted in fresh YPD medium to obtain OD600s of 0.095 (∼1 × 10^6 to 1.5 × 10^6 cells/ml) and 0.05 (0.5 × 10^6 to 0.8 × 10^6 cells/ml), respectively. A blank vehicle control (DMSO) or occidiofungin (1 µg/ml; 0.5× MIC) was added, and the cultures were placed at 30°C with shaking. Samples were removed at 0.5, 1, and 2 h, and the cells fixed by adding formaldehyde (3.7%). The cells were washed in phosphate-buffered saline (PBS) and permeabilized by adding an equivalent volume of PBS containing 0.2% Triton X-100 for 30 min at room temperature. The cells were washed thrice in PBS, added to concanavalin A-treated glass slides, and overlaid with Vectashield plus DAPI (4′,6-diamidino-2-phenylindole). Images were viewed using a Nikon 50i fluorescence microscope with a 100× oil immersion objective and DAPI filter. Cells were scored on the basis of bud morphology and DNA location. One-way analyses of variance (ANOVAs) with post hoc Tukey’s honestly significant difference (HSD) testing were used to determine statistically significant differences in the distributions between treated and untreated cells. In addition, FM-464 uptake assays were used to observe endocytosis. Three 1-ml aliquots of S. pombe (OD600 of 0.6 to 0.8) were treated with 1 μl DMSO, 0.5 μg/ml (0.5× MIC), or 1 μg/ml (1× MIC) of native occidiofungin for 30 min at 30°C. The cells were washed thrice with PBS and resuspended in YPD medium containing […] FM-464 (Thermo Fisher Scientific). The cells were incubated for 60 min at 30°C, followed by two washes in PBS before visualizing on an Olympus FV1000 confocal microscope with a 40×/0.9 dry objective. Lastly, actin polymerization and depolymerization assays were performed using the Actin polymerization biochem kit (catalog number BK003; Cytoskeleton, Inc.) according to the manufacturer’s instructions.
# [5] = tested on: yeast; conditions: cited from earlier work
# Source text: Occidiofungin is a nonribosomally synthesized glycolipopeptide produced by the soil bacterium Burkholderia contaminans MS14 ([21]). It is a cyclic peptide with a base mass of 1,200 Da (Fig. 1) ([21]). Occidiofungin has a wide spectrum of activities against filamentous and nonfilamentous fungi and minimal toxicity in an animal system ([21], [22]).
# [6] = T=1hr, replicate 1, untreated 51.7/48.3
# [7] = T=1hr, replicate 2, untreated 72.7/27.3
# [8] = T=1hr, replicate 3, untreated 43.6/56.4
# [9] = T=2hr, replicate 1, untreated 23.4/76.6
# [10] = T=2hr, replicate 2, untreated 15.6/84.4
# [11] = T=2hr, replicate 3, untreated 14.2/85.8
# [12] = T=4hr, replicate 1, untreated 7.1/92.9
# [13] = T=4hr, replicate 2, untreated 17.4/82.6
# [14] = T=4hr, replicate 3, untreated 13.2/86.8
# [15] = T=6hr, replicate 2, untreated 52.2/47.8
# [16] = T=6hr, replicate 3, untreated 21.1/78.9
substance,measurement,setting,value
occidiofungin,"MIC, 50% inhibition",[1]; 24 hours,-
same,"MIC, 100% inhibition",[1]; 24 hours,2 µg/mL
same,"MIC, 50% inhibition",[1]; 48 hours,-
same,"MIC, 100% inhibition",[1]; 48 hours,2 µg/mL
same,"MIC, 50% inhibition",[2]; 24 hours,-
same,"MIC, 100% inhibition",[2]; 24 hours,1 µg/mL
same,"MIC, 50% inhibition",[2]; 48 hours,-
same,"MIC, 100% inhibition",[2]; 48 hours,2 µg/mL
same,"MIC, 50% inhibition",[3]; 24 hours,2 µg/mL
same,"MIC, 100% inhibition",[3]; 24 hours,4 µg/mL
same,"MIC, 50% inhibition",[3]; 48 hours,-
same,"MIC, 100% inhibition",[3]; 48 hours,4 µg/mL
same,% hyphae,"[4]; T=0hr, replicate 1",0%
same,% yeast,"[4]; T=0hr, replicate 1",100%
same,% hyphae,"[4]; T=0hr, replicate 2",0%
same,% yeast,"[4]; T=0hr, replicate 2",100%
same,% hyphae,"[4]; T=0hr, replicate 3",0%
same,% yeast,"[4]; T=0hr, replicate 3",100%
same,% hyphae,[4]; [6],0%
same,% yeast,[4]; [6],100%
same,% hyphae,[4]; [7],0%
same,% yeast,[4]; [7],100%
same,% hyphae,[4]; [8],0%
same,% yeast,[4]; [8],100%
same,% hyphae,[4]; [9],0%
same,% yeast,[4]; [9],100%
same,% hyphae,[4]; [10],0%
same,% yeast,[4]; [10],100%
same,% hyphae,[4]; [11],0%
same,% yeast,[4]; [11],100%
same,% hyphae,[4]; [12],0.5%
same,% yeast,[4]; [12],99.5%
same,% hyphae,[4]; [13],0%
same,% yeast,[4]; [13],100%
same,% hyphae,[4]; [14],0.2%
same,% yeast,[4]; [14],99.8%
same,% hyphae,[4]; [15],0%
same,% yeast,[4]; [15],100%
same,% hyphae,[4]; [16],0%
same,% yeast,[4]; [16],100%
same,effect on hyphal formation,[4]; subinhibitory concentration (1 µg/ml; 0.5× MIC),blocked hyphal formation
same,impact on growth rate of yeast,[5]; subinhibitory concentrations,little to no impact on the growth rate of yeast
same,induction of apoptosis,[5]; yeast cells at the MIC,rapidly induces apoptosis in yeast cells
